According to US8653117B2, “Composition comprising at least one oxazoline to inhibit migration of langerhans cells, and uses thereof” (Laboratoires Expanscience, priority 2001, dated 2014):

Assays:
[1] = system: Langerhans cells (LC) and dendritic cells (DC) in mice; assay: Migration of dendritic cells from ear skin to draining ganglions in mice sensitized by FITC hapten; assay type: in vivo; details: for Migration inhibition in %: FITC hapten; for migration of DCs to LGs (in words): OX100 alone, mice sensitized by FITC hapten
Text: FITC (Fluoresceine isothiocyanate, Sigma, St Louis, Mo.) was extemporaneously diluted in an acetone mix (dibutylphthalate (1:1)).
Oxazoline OX100 and LU105 (LU 105 is an MMP inhibitor, corresponding to a peptide extract of white lupin marketed by the Expanscience Company under the brand name Actimp 193®) were supplied by “Laboratoires Expanscience” and formulated alone or association with each other in an inert vehicle compatible with a topical application (oxazoline OX100 (0.1%) LU105 (2%)). The different formulations were applied on the ears of mice twice per day for 4 consecutive days. 1.5% of FITC was applied on both ears (one treated and the other not treated (Control)) three hours after the last application.
The effect of the two molecules was evaluated in vivo in mice. 1.5% FITC (2×5 μl) was applied on the skin of both ears. 24 h later, the mice were sacrificed and a cellular suspension was prepared from auricular and cervical ganglions (draining ganglions, hereinafter denoted GL) or from the poplital ganglions (non-draining ganglions, negative control). The tissues were cut and cells separated by filtration (100 μm filter, Falcon; Becton Dickinson) and then washed. The cells were then centrifuged for 10 minutes at 600×g (m×s^−2) on a metrizamide gradient (14.5% in RPMI 1640; 7.5% SVF). The interface cells were retrieved, rinsed and then marked with an anti-CDS86 PE-conjugated, biot-MHC CLII mAbs AC plus streptavidine-Cya (PharMingen) and analyzed by flux cytometry. Only the FITC^+, PE^+ and Cya^+ cells are counted since they represent the population of cells that migrated from the skin to GLs following the application of hapten.
FITC (Fluoresceine isothiocyanate, Sigma, St. Louis, Mo.) was diluted extemporaneously in a mixture of acetone and dibutylphthalate (1:1).
Oxazoline OX100 and AK100 (described above) were supplied by “Laboratoires Expanscience” and formulated alone or in association in an inert vehicle compatible with a topical application [OX100 (0.05%) AK100 (0.05%)]. The different formulations were applied on the ears of mice twice per day for 4 consecutive days. Three hours after the last application, 1.5% of FITC was applied on both ears (one treated and the other not treated (Control)).

[2] = system: Langerhans cells freshly isolated from human skin; assay: Migration of Langerhans cells freshly isolated from human skin, sensitized by DNSB, two-compartment Matrigel chamber; assay type: cell-based
Experimental: Epidermal cell suspensions were obtained by enzymatic treatment (0.05% trypsine for 18 h at +4° C.) of fragments of normal human skin taken from plastic surgery. The suspensions obtained contain an average of 2 to 4% of LC. Obtaining suspensions containing an average of 70% of LC is based on the principle of centrifuging on density gradient (Lymphoprep™) and elimination of keratinocytes.
The basic medium chosen for the entire study was PRMI 1640 (Gibco BRL, France). The OX100 molecule supplied by Pharmascience, with a concentration of 10^−2 M in solution in DMSO (Dimethyl Sulfoxide) was diluted in RPMI-1640 and tested at 1 μM.
The sensitizing agent was DNSB (Sigma Aldrich), a soluble form of DNCB (dinitro-chloro-benzene) solubilized in RPMI-BSA and used at a concentration of 50 μM.
A culture chamber system with two compartments (Falcon, Becton Dickinson, France) was used. The upper compartment is separated from the lower compartment by a membrane with 8 μm porosity, on which 50 μg/cm^2 Matrigel was deposited. […] After 18 h incubation at 37° C., the number of living cells that passed through the Matrigel and that are located in the lower compartment is counted under a microscope (the LCs are easily identifiable by their dendritic form). […]

[3] = system: dendritic cells generated in vitro from CD34+ precursors derived from blood from the umbilical cord; assay: Migration of dendritic cells generated in vitro from CD34+ precursors of umbilical cord blood, activated by hapten BB; assay type: cell-based; details: for inhibition at 1 µM: Dendritic cell, hapten BB; for Percentage of dendritic cells generated in vitro that migrated: BB + OX100 (1 μM)
Experimental: Mononucleated cells were obtained from blood from the umbilical cord of healthy donors by centrifuging on Ficoll. The CD34+ cells were then purified by immunoselection using a specific antibody and magnetic balls (Miltenyi Biotech, Germany). The CD34+ cells were cultivated in the presence of GM-CSF (100 ng/ml), TNF-α (2.5 ng/ml) in RPMI to which 10% calf fetus serum was added for 5 days. TGF-β1, a factor that encourages differentiation of cells to the Langerhans cells […], was added on the 5th day of culture.
Preparation of Media (Ditto Example 2).
Cells were treated by hapten BB on the 7th day (Brandowski base, 1.17 μg/ml) for 24 h, and were then subjected to the migration test.
Migration of LCs (Ditto Example 2).

Compound	Migration inhibition in % ([1]; Example 5, AK100 0.05% topical on ears twice per day for 4 days)	migration of LCs induced by DNSB (in words) ([2]; 1 μM)	LC migration index ([2]; DNSB + OX100 (1 μM), 18 h, control cells set to 1, DNSB alone 2.55)	Migration inhibition in % ([1]; Example 4, OX100 0.1% topical on ears twice per day for 4 days)	migration of DCs to LGs (in words) ([1]; Example 4)	Migration inhibition in % ([1]; Example 5, OX100 0.05% topical on ears twice per day for 4 days)	migration of DCs to LGs (in words) ([1]; Example 5)	migration of dendritic cells generated in vitro and activated by hapten BB (in words) ([3]; 1 μM)	inhibition at 1 µM ([3]; experiment 1, 1 μM)	inhibition at 1 µM ([3]; experiment 2, 1 μM)	Percentage of dendritic cells generated in vitro that migrated ([3]; Experiment 1, BB alone 17)	Percentage of dendritic cells generated in vitro that migrated ([3]; Experiment 2, BB alone 24)
CCCCCCCCCCCC(=O)NC(C)(C)CO [AK100]	15%											
CCCCCCCCCCCC1=NC(C)(C)CO1 [OX100, 2-undecyl-4,4-dimethyl-1,3-oxazoline]		significantly inhibits	0.98	30%	significantly inhibits	15%	significantly inhibits	significantly inhibits	29%	15%	12%	20.3%
